# Measurements reported in ChEMBL document CHEMBL6177981, “Bardoxolone Derivatives as Novel Pseudo-Natural Necroptosis Inhibitors by Destabilizing HSP90 Client Proteins” (J Med Chem, 2025).
# Activity calls are given as the source filed them. The calls are words filed in the database; no cut-off is given here.
# Key:
# [1] = Cmax in Sprague-Dawley rat at 2 mg/kg, iv measured after 24 hrs by LC-MS/MS analysis; assay type: ADME, organism-based; conditions: in vivo
# [2] = Acute toxicity in male C57BL/6J mouse assessed as structural changes in intestine at 2 g/Kg, IG measured after 72 hrs by H and E staining based analysis; assay type: tissue-based; conditions: in vivo, po, 2000 mg/kg
# Mus musculus [3] = experiment: (§1) Anti-necroptotic activity in TNFalpha/Z-VAD-FMK induced SIRS male C57BL/6J mouse model assessed as reduction in IL-1beta in serum pre-administered orally with compound via gavage for 2 hrs followed by […] of Z-VAD-FMK stimulation for 15 mins with subsequent TNF-alpha stimulation for 1 hrs and re-current […] of Z-VAD-FMK stimulation and measured after 8 hrs post SIRS induction by ELISA; assay type: functional, organism-based; conditions: dose 2.5-10 mg/kg, route po, time 10.0 hrs
# HT-29 [4] = experiment: Anti-necroptotic activity in TSZ-induced human HT-29 cells assessed as cell survival at 10 uM measured after 12 hrs by Live-cell super-resolution panoramic microscopic analysis (reference value: 8 hrs); assay type: functional
# L929 = experiment: Anti-necroptotic activity in TZ-induced mouse L929 cells assessed as increase in cell viability preincubated with compound followed by Z-VAD-FMK and mTNFalpha stimulation and measured after 4 hrs by CellTiter-Lumi luminescent cell viability assay; assay type: functional, cell-based; conditions: dose 0.625-10 µM
# HT-29 [5] = experiment: Downregulation of RIPK3 protein level in human HT-29 cells at 3 to 6 uM incubated for 9 hrs by Western blot analysis; assay type: functional, cell-based; conditions: dose 3-6 µM
# HeLa [6] = experiment: Inhibition of MLKL protein expression in RIPK3-deficient human HeLa cells at 6 uM preincubated with NH4Cl for 2 hrs followed by compound addition and measured after 9 hrs by Western blot analysis; assay type: functional, cell-based
# HeLa [7] = experiment: Inhibition of MLKL protein expression in RIPK3-deficient human HeLa cells at 6 uM preincubated with MG132 for 2 hrs followed by compound addition and measured after 9 hrs by Western blot analysis; assay type: functional, cell-based
# Mus musculus [8] = experiment: as §1, with “IL6” for “IL-1beta”; assay type: functional, organism-based; conditions: dose 2.5-10 mg/kg, route po, time 10.0 hrs
# HT-29 [9] = experiment: Anti-necroptotic activity in TSZ-induced human HT-29 cells assessed as increase in cell viability preincubated with compound followed by Z-VAD-FMK, SM164 and TNFalpha addition and measured after 12 hrs by CellTiter-Lumi luminescent cell viability assay; assay type: functional, cell-based; conditions: dose 0.156-10 µM
# HT-29 [10] = experiment: Downregulation of MLKL protein level in human HT-29 cells at 3 to 6 uM incubated for 9 hrs by Western blot analysis; assay type: functional, cell-based; conditions: dose 3-6 µM
# HT-29 [11] = experiment: Anti-necroptotic activity in TSZ-induced human HT-29 cells assessed as increase in cell viability preincubated with Z-VAD-FMK and SM164 for 30 mins followed by TNFalpha stimulation for 12 hrs and measured after compound addition by CellTiter-Lumi luminescent cell viability assay; assay type: functional, cell-based
# HT-29 [12] = experiment: Anti-apoptotic activity in TC-induced human HT-29 cells assessed as increase in cell viability at 1.25 to 20 uM preincubated with compound followed by TNF-alpha and cycloheximide addition and measured after 24 hrs by CellTiter-Lumi luminescent cell viability assay; assay type: functional, cell-based; conditions: dose 1.25-20 µM
# HT-29 [13] = experiment: Upregulation of HSP70 protein level in TSZ-induced human HT-29 cells at 10 uM preincubated with compound followed by Z-VAD-FMK, SM164 and TNFalpha stimulation and measured after 6 hrs by Western blot analysis; assay type: functional, cell-based
# [14] = Acute toxicity in male C57BL/6J mouse assessed as hemorrhage in stomach at 2 g/Kg, IG measured after 72 hrs by H and E staining based analysis; assay type: tissue-based; conditions: in vivo, po, 2000 mg/kg
# HT-29 [15] = experiment: Effect on MLKL protein level in human HT-29 cell precipitate at 6 uM measured after 9 hrs by Western blot analysis; assay type: functional, cell-based
# [16] = Acute toxicity in male C57BL/6J mouse assessed as structural changes in kidney at 2 g/Kg, IG measured after 72 hrs by H and E staining based analysis; assay type: tissue-based; conditions: in vivo, po, 2000 mg/kg
# Mus musculus [17] = experiment: as §1, with “protection from hypothermia at 2.5 to 10 mg/kg, po” for “reduction in IL-1beta in serum”, “pre-administered” for “pre-administered orally”, “induction” for “induction by ELISA”; assay type: functional, organism-based; conditions: dose 2.5-10 mg/kg, time 10.0 hrs
# [18] = Acute toxicity in male C57BL/6J mouse assessed as inflammatory cell infiltration in intestine at 2 g/Kg, IG measured after 72 hrs by H and E staining based analysis; assay type: tissue-based; conditions: in vivo, po, 2000 mg/kg
# Mus musculus [19] = experiment: as §1, with “protection from death at 2.5 to 10 mg/kg, po” for “reduction in IL-1beta in serum”, “pre-administered” for “pre-administered orally”, “induction” for “induction by ELISA”; assay type: functional, organism-based; conditions: dose 2.5-10 mg/kg, time 10.0 hrs
# [20] = Cmax in Sprague-Dawley rat at 10 mg/kg, IG measured after 24 hrs by LC-MS/MS analysis; assay type: ADME, organism-based; conditions: in vivo, po
# HT-29 [21] = experiment: Downregulation of RIPK3 protein level in human HT-29 cells at 6 uM preincubated with NH4Cl for 2 hrs followed by compound addition and measured after 9 hrs by Western blot analysis; assay type: functional, cell-based
# [22] = Acute toxicity in male C57BL/6J mouse assessed as structural changes in brain at 2 g/Kg, IG measured after 72 hrs by H and E staining based analysis; assay type: tissue-based; conditions: in vivo, po, 2000 mg/kg
# [23] = AUC (0 to 24 hrs) in Sprague-Dawley rat at 10 mg/kg, IG measured after 24 hrs by LC-MS/MS analysis; assay type: ADME, organism-based; conditions: in vivo, po
# HT-29 [24] = experiment: Downregulation of RIPK1 protein level in human HT-29 cells at 3 to 6 uM incubated for 9 hrs by Western blot analysis; assay type: functional, cell-based; conditions: dose 3-6 µM
# HT-29 [25] = experiment: Downregulation of MLKL protein level in human HT-29 cells at 6 uM preincubated with MG132 for 2 hrs followed by compound addition and measured after 9 hrs by Western blot analysis; assay type: functional, cell-based
# Mus musculus [26] = experiment: as §1, with “survival rate at 2.5 mg/kg, po” for “reduction in IL-1beta in serum”, “pre-administered” for “pre-administered orally”, “relative to control” for “by ELISA”; assay type: functional; conditions: time 10 hrs
# [27] = Acute toxicity in male C57BL/6J mouse assessed as inflammatory cell infiltration in brain at 2 g/Kg, IG measured after 72 hrs by H and E staining based analysis; assay type: tissue-based; conditions: in vivo, po, 2000 mg/kg
# [28] = Acute toxicity in male C57BL/6J mouse assessed as structural changes in lung at 2 g/Kg, IG measured after 72 hrs by H and E staining based analysis; assay type: tissue-based; conditions: in vivo, po, 2000 mg/kg
# [29] = Acute toxicity in male C57BL/6J mouse assessed as inflammatory cell infiltration in lung at 2 g/Kg, IG measured after 72 hrs by H and E staining based analysis; assay type: tissue-based; conditions: in vivo, po, 2000 mg/kg
structure (smiles),measurement,setting,value
Cn1ccc(-c2ccc(NC(=O)[C@]34CCC(C)(C)C[C@H]3[C@H]3C(=O)C=C5[C@@]6(C)C=C(C#N)C(=O)C(C)(C)[C@@H]6CC[C@@]5(C)[C@]3(C)CC4)cc2)n1,Cmax,[1],1040 ng/mL
same,Activity,[2],Non-toxic
same,Activity,Mus musculus [3],Dose-dependent-effect
same,Survival,HT-29 [4],9 h
same,Activity,L929,Dose-dependent-effect
same,Activity,HT-29 [5],Active; Significant Effect Observed
same,inhibition,HeLa [6],Active
same,inhibition,HeLa [7],Active
same,Activity,Mus musculus [8],Dose-dependent-effect
same,Activity,HT-29 [9],Dose-dependent-effect
same,Activity,HT-29 [10],Active; Significant Effect Observed
same,EC50,HT-29 [11],1.38 µM
same,Activity,HT-29 [12],inactive
same,Activity,HT-29 [13],inactive
same,Activity,[14],Non-toxic
same,Activity,HT-29 [15],inactive
same,Activity,[16],Non-toxic
same,Activity,Mus musculus [17],Active
same,Activity,[18],Non-toxic
same,Activity,Mus musculus [19],Active
same,Cmax,[20],65.1 ng/mL
same,Activity,HT-29 [21],Active
same,Activity,[22],Non-toxic
same,AUC(0-t) at 24 h,[23],1080 ng·h/mL
same,Activity,HT-29 [24],Active; Significant Effect Observed
same,Activity,HT-29 [25],Active
same,survival at 2.5 mg/kg,Mus musculus [26],35%
same,Activity,[27],Non-toxic
same,Activity,[28],Non-toxic
same,Activity,[29],Non-toxic
